From patent US9049864B2, “Pyridazinone herbicidal compounds” (Syngenta Limited, priority 2012, dated 2015)

Experiments:
Experiment in all cases: Post-emergence herbicidal glasshouse test, percentage damage to the plant
Assay type in all cases: in vivo
Details in all cases: post-emergence, 1000 g/ha, evaluated after 13 days
[1] = tested on: Echinochloa crus-galli (ECHCG)
Method in brief: (§1)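 Activity appears as a score from 1 (0-19% damage) to 5 (80-100%), assessed 13 days after a post-emergence spray of 8-day-old plants. Comparative runs used 250, 500 and 1000 g/ha; the standard rate was 1000 g/ha, formulated in acetone/water (50:50) with 0.5% Tween 20.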

[2] = tested on: Ipomoea hederacea (IPOHE)
Method in brief: as §1

Solanum nigrum (SOLNI) = tested on: Solanum nigrum (SOLNI)
Method in brief: as §1

[3] = tested on: Alopecurus myosuroides (ALOMY)
Method in brief: as §1

[4] = tested on: Amaranthus retoflexus (AMARE)
Method in brief: as §1

Setaria faberi (SETFA) = tested on: Setaria faberi (SETFA)
Method in brief: as §1

| Compound | POST Application ECHCG, percentage damage (five point scale) [1] | POST Application IPOHE, percentage damage (five point scale) [2] | POST Application SOLNI, percentage damage (five point scale) (Solanum nigrum (SOLNI)) | POST Application ALOMY, percentage damage (five point scale) [3] | POST Application AMARE, percentage damage (five point scale) [4] | POST Application SETFA, percentage damage (five point scale) (Setaria faberi (SETFA)) |
| --- | --- | --- | --- | --- | --- | --- |
| CC(C)OCC1=NN(C)C(=O)C(n2c(Cl)c(Cl)c3ccccc32)C1=O (stereo not drawn) [Compound 2.014] | 1 (1=0-19%) | 5 (5=80-100%) | 4 (4=60-79%) | 1 (1=0-19%) | 2 (2=20-39%) | 1 (1=0-19%) |
| COCCOCC1=NN(C)C(=O)C(n2c(Cl)c(Cl)c3ccccc32)C1=O (stereo not drawn) [Compound 2.015] | 1 (1=0-19%) | 5 (5=80-100%) | 4 (4=60-79%) | 1 (1=0-19%) | 2 (2=20-39%) | 1 (1=0-19%) |
| C=C(C)C1=NN(C)C(=O)C(n2c(Cl)c(Cl)c3ccccc32)C1=O (stereo not drawn) [Compound 2.016] | 1 (1=0-19%) | 2 (2=20-39%) | 4 (4=60-79%) | 1 (1=0-19%) | 4 (4=60-79%) | 1 (1=0-19%) |
| CCSC1=NN(C)C(=O)C(n2c(Cl)c(Cl)c3ccccc32)C1=O (stereo not drawn) [Compound 2.017] | 2 (2=20-39%) | 1 (1=0-19%) | 3 (3=40-59%) | 1 (1=0-19%) | 4 (4=60-79%) | 1 (1=0-19%) |
| CCCOC1=NN(C)C(=O)C(n2c(Cl)c(Cl)c3ccccc32)C1=O (stereo not drawn) [Compound 2.018] | 1 (1=0-19%) | 4 (4=60-79%) | 4 (4=60-79%) | 1 (1=0-19%) | 3 (3=40-59%) | 1 (1=0-19%) |
| CC(C)COC1=NN(C)C(=O)C(n2c(Cl)c(Cl)c3ccccc32)C1=O (stereo not drawn) [Compound 2.019] | 1 (1=0-19%) | 2 (2=20-39%) | 4 (4=60-79%) | 1 (1=0-19%) | 4 (4=60-79%) | 1 (1=0-19%) |
| CN1N=C(OCC(F)F)C(=O)C(n2c(Cl)c(Cl)c3ccccc32)C1=O (stereo not drawn) [Compound 2.020] | 1 (1=0-19%) | 3 (3=40-59%) | 4 (4=60-79%) | 1 (1=0-19%) | 4 (4=60-79%) | 1 (1=0-19%) |
| CN(C)C1=NN(C)C(=O)C(n2c(Cl)c(Cl)c3ccccc32)C1=O (stereo not drawn) [Compound 2.021] | 1 (1=0-19%) | 3 (3=40-59%) | 4 (4=60-79%) | 2 (2=20-39%) | 3 (3=40-59%) | 1 (1=0-19%) |
| COC1=NN(C)C(=O)C(n2c(Cl)c(Cl)c3ccccc32)C1=O (stereo not drawn) [Compound 2.022] | 1 (1=0-19%) | 5 (5=80-100%) | 5 (5=80-100%) | 1 (1=0-19%) | 4 (4=60-79%) | 1 (1=0-19%) |
| CCOC1=NN(C)C(=O)C(n2c(Cl)c(Cl)c3ccccc32)C1=O (stereo not drawn) [Compound 2.023] | 1 (1=0-19%) | 4 (4=60-79%) | 4 (4=60-79%) | 1 (1=0-19%) | 2 (2=20-39%) | 1 (1=0-19%) |
| CN1N=C(OCC(F)(F)F)C(=O)C(n2c(Cl)c(Cl)c3ccccc32)C1=O (stereo not drawn) [Compound 2.024] | 1 (1=0-19%) | 1 (1=0-19%) | 2 (2=20-39%) | 1 (1=0-19%) | 2 (2=20-39%) | 1 (1=0-19%) |
| C=CCC1=NN(C)C(=O)C(n2c(Cl)c(Cl)c3ccccc32)C1=O (stereo not drawn) [Compound 2.025] | 2 (2=20-39%) | 5 (5=80-100%) | 5 (5=80-100%) | 1 (1=0-19%) | 2 (2=20-39%) | 2 (2=20-39%) |
| CN1N=C(C2CC2)C(=O)C(n2c(Cl)c(Cl)c3ccccc32)C1=O (stereo not drawn) [Compound 2.026] | 1 (1=0-19%) | 5 (5=80-100%) | 5 (5=80-100%) | 1 (1=0-19%) | 4 (4=60-79%) | 2 (2=20-39%) |
| CCC1=NN(C)C(=O)C(n2c(Cl)c(Cl)c3ccccc32)C1=O (stereo not drawn) [Compound 2.027] | 1 (1=0-19%) | 5 (5=80-100%) | 5 (5=80-100%) | 1 (1=0-19%) | 4 (4=60-79%) | 1 (1=0-19%) |
| CN1N=C(Br)C(=O)C(n2c(Cl)c(Cl)c3ccccc32)C1=O (stereo not drawn) [Compound 2.028] | 1 (1=0-19%) | 5 (5=80-100%) | 5 (5=80-100%) | 1 (1=0-19%) | 5 (5=80-100%) | 1 (1=0-19%) |
| Cc1nn(C)c(=O)c(-n2c(Cl)c(Cl)c3ccccc32)c1OC(=O)SC(C)C [Compound 3.001, [5-(2,3-dichloroindol-1-yl)-1,3-dimethyl-6-oxo-pyridazin-4-yl]isopropylsulfanylformate] | 1 (1=0-19%) | 5 (5=80-100%) | 5 (5=80-100%) | 1 (1=0-19%) | 5 (5=80-100%) | 1 (1=0-19%) |
| Cc1nn(C)c(=O)c(-n2c(Cl)c(Cl)c3ccccc32)c1OC(=O)N1CCOCC1 [Compound 3.002] | 1 (1=0-19%) | 5 (5=80-100%) | 5 (5=80-100%) | 1 (1=0-19%) | 2 (2=20-39%) | 1 (1=0-19%) |
| Cc1nn(C)c(=O)c(-n2c(Cl)c(Cl)c3ccccc32)c1OC(=O)C(C)C [Compound 3.003] | 4 (4=60-79%) | 5 (5=80-100%) | 5 (5=80-100%) | 1 (1=0-19%) | 5 (5=80-100%) | 1 (1=0-19%) |
